Literature values, collected in PMC11982978, “Cancer hotspot mutations rewire ERK2 specificity by selective exclusion of docking interactions” (The Journal of Biological Chemistry, 2025).

System: WT ERK2
Settings: selective conditions (-His); hits Z > 3; average of three screens; cited from earlier work
From the text: Supplement mmc2.xlsx, sheet "WT Hits" | column: Z-score

Point of comparison: “MQKKIKIPKLSLNH [BEND5, D-site 14-mer in ELK1 Y2H prey]”, “Z-score (ES) of hit sequences, WT ERK2 Y2H screen” value 3.94. Against it:
- KQGGRKPKPLWLSP [KIAA0556, D-site 14-mer in ELK1 Y2H prey] — higher, 4.98
- KQRKLSPLRLSVSN [KMT2E, D-site 14-mer in ELK1 Y2H prey] — higher, 4.49
- KRSKKNSLALSLTA [ESR1, D-site 14-mer in ELK1 Y2H prey] — higher, 5.11
- KRWLRKPRPVSLFS [GTF3C1, D-site 14-mer in ELK1 Y2H prey] — higher, 5.35
- KSRQKNPRSLCIQP [MTUS1, D-site 14-mer in ELK1 Y2H prey] — higher, 4.97
- KTKRNKILKLKFPR [ATP8B1, D-site 14-mer in ELK1 Y2H prey] — lower, 3.62
- KTQRLDVAKVCLGN [IFT140, D-site 14-mer in ELK1 Y2H prey] — higher, 4.26
- LKQRRRAQKLHFLQ [DDX54, D-site 14-mer in ELK1 Y2H prey] — lower, 3.41
- LKQRTRPLLINLSK [MCTP2, D-site 14-mer in ELK1 Y2H prey] — lower, 3.77
- LQRKGGPTRLTLPS [CMIP, D-site 14-mer in ELK1 Y2H prey] — higher, 4.12
- LRKKPDLSPLKLTI [TTC41P, D-site 14-mer in ELK1 Y2H prey] — higher, 5.81
- LRPLRPKPPLLLPK [RREB1, D-site 14-mer in ELK1 Y2H prey] — higher, 9.18
- LRVRKARPQLILSR [NOL9, D-site 14-mer in ELK1 Y2H prey] — higher, 4.35
- NGRREKRKQLTLPS [TBX2, D-site 14-mer in ELK1 Y2H prey] — higher, 10.21
- NKSLKNQHGLTLQL [ZNF534, D-site 14-mer in ELK1 Y2H prey] — higher, 12.39
- NQKKPALKKLTLLP [IWS1, D-site 14-mer in ELK1 Y2H prey] — higher, 4.19
- PDGKKRRKVLALPS [RBM28, D-site 14-mer in ELK1 Y2H prey] — higher, 5.03
- PDRKAKPTPLDLRN [GAB2, D-site 14-mer in ELK1 Y2H prey] — higher, 7.63
- PDRKVKPAPLEIKP [GAB1, D-site 14-mer in ELK1 Y2H prey] — higher, 10.25
- PFGSRRSSAIGIEN [RAP1GAP, D-site 14-mer in ELK1 Y2H prey] — higher, 5.61
- PGKRGRPRKLKLCK [MGA, D-site 14-mer in ELK1 Y2H prey] — higher, 8.03
- PGRRQNTIVVKVPG [BANP, D-site 14-mer in ELK1 Y2H prey] — higher, 5.25
- PIKQKRKLRIFISN [SMARCD1, D-site 14-mer in ELK1 Y2H prey] — higher, 4.04
- PKDKKRPTPLEIGY [PCLO, D-site 14-mer in ELK1 Y2H prey] — higher, 4.93
- PKGKNRPSSLNLDP [ARHGAP31, D-site 14-mer in ELK1 Y2H prey] — lower, 3.62
- PKRKEPGRSLRIKV [DNAJC27, D-site 14-mer in ELK1 Y2H prey] — higher, 6.00
- PLPRRTRRPLLLPR [HPS4, D-site 14-mer in ELK1 Y2H prey] — higher, 7.88
- PMKQKRKLRLYISN [SMARCD3, D-site 14-mer in ELK1 Y2H prey] — higher, 6.57
- PPVKKKPKLLNLKD [SIN3A, D-site 14-mer in ELK1 Y2H prey] — higher, 4.29
- PTKTKPKKLLFLGS [SMG1, D-site 14-mer in ELK1 Y2H prey] — lower, 3.46
- PWRTTKPQPLVLSQ [PROX2, D-site 14-mer in ELK1 Y2H prey] — lower, 3.19
